From patent US10787443B2, “RAF-degrading conjugate compounds” (ZAMBONI CHEM SOLUTIONS INC., priority 2017, dated 2020)
Counter-ions that a name gives are not always drawn.

system: GST-Braf kinase domain and biotinylated E3 substrate adapter (VHL/EloB/EloC complex or CRBN318-425); test: Dimerization assay (AlphaScreen/AlphaLisa), RAF/E3 dimerization; assay type: binding; conditions: Table 15; relative value; compounds 4 fold serial dilutions from 20 μM

SMILES	RAF/E3 Dimerization
Cc1ncc(NC(=O)c2cccc(C(F)(F)F)c2)cc1-c1cnc(OCCc2cn(CCCCCC(=O)Nc3cccc4c3C(=O)N(C3CCC(=O)NC3=O)C4=O)nn2)c(N2CCOCC2)c1 (centres unmarked) [Compound 1.002, N-(6′-(2-(1-(6-((2-(2,6-dioxopiperidin-3-yl)-1,3-dioxoisoindolin-4-yl)amino)-6-oxohexyl)-1H-1,2,3-triazol-4-yl)ethoxy)-2-methyl-5′-morpholino-[3,3′-bipyridin]-5-yl)-3-(trifluoromethyl)benzamide]	+ (5% > RAF/E3 Dimerization)
Cc1ncc(NC(=O)c2cccc(C(F)(F)F)c2)cc1-c1cnc(OCc2cn(CCCCCC(=O)Nc3cccc4c3C(=O)N(C3CCC(=O)NC3=O)C4=O)nn2)c(N2CCOCC2)c1 (centres unmarked) [Compound 1.001, N-(6′-((1-(6-((2-(2,6-dioxopiperidin-3-yl)-1,3-dioxoisoindolin-4-yl)amino)-6-oxohexyl)-1H-1,2,3-triazol-4-yl)methoxy)-2-methyl-5′-morpholino-[3,3′-bipyridin]-5-yl)-3-(trifluoromethyl)benzamide]	+ +

same assay, conditions: Table 16; relative value; compounds 4 fold serial dilutions from 20 μM

SMILES	RAF/E3 Dimerization
Cc1ncc(NC(=O)c2cccc(C(F)(F)F)c2)cc1-c1cnc(OCCOCCOCCOCC(=O)N[C@@H](C(=O)N2C[C@H](O)C[C@H]2C(=O)N[C@@H](C)c2ccc(-c3scnc3C)cc2)C(C)(C)C)c(N2CCOCC2)c1 [Compound 1.013, (2S,4R)-1-((R)-2-(tert-butyl)-14-((2′-methyl-5-morpholino-5′-(3-(trifluoromethyl)benza-mido)-[3,3′-bipyridin]-6-yl)oxy)-4-oxo-6,9,12-trioxa-3-azatetradecan-1-oyl)-4-hydroxy-N—((S)-1-(4-(4-methylthiazol-5-yl)phenyl)ethyl)pyrrolidine-2-carboxamide]	+ + +

same assay, conditions: Table 17; relative value; compounds 4 fold serial dilutions from 20 μM

SMILES	RAF/E3 Dimerization
Cc1ncc(NC(=O)c2cccc(C(F)(F)F)c2)cc1-c1cnc(OCCOCCOCCOCC(=O)NCCOCCCc2cccc3c2CN(C2CCC(=O)NC2=O)C3=O)c(N2CCOCC2)c1 (centres unmarked) [Compound 2.020, N-(6′-((18-(2-(2,6-dioxopiperidin-3-yl)-1-oxoisoindolin-4-yl)-11-oxo-3,6,9,15-tetraoxa-12-azaoctadecyl)oxy)-2-methyl-5′-morpholino-[3,3′-bipyridin]-5-yl)-3-(trifluoromethyl)-benzamide]	+++ (50% > RAF/E3 Dimerization ≥ 25)
O=C1CCC(N2C(=O)c3cccc(NC(=O)CCCCCn4cc(COCCOCCOCCNC(=O)c5cc(Oc6ccc(NC(=O)Nc7ccc(Cl)c(C(F)(F)F)c7)cc6)ccn5)nn4)c3C2=O)C(=O)N1 (centres unmarked) [Compound 2.027, 4-(4-(3-(4-chloro-3-(trifluoromethyl)phenyl)ureido)phenoxy)-N-(2-(2-(2-((1-(6-((2-(2,6-dioxopiperidin-3-yl)-1,3-dioxoisoindolin-4-yl)amino)-6-oxohexyl)-1H-1,2,3-triazol-4-yl)methoxy)ethoxy)ethoxy)ethyl)picolinamide]	++ (25% > RAF/E3 Dimerization ≥ 5%)
O=C1CCC(N2C(=O)c3cccc(NC(=O)CCCCCn4cc(CNC(=O)c5cc(Oc6ccc(NC(=O)Nc7ccc(Cl)c(C(F)(F)F)c7)cc6)ccn5)nn4)c3C2=O)C(=O)N1 (centres unmarked) [Compound 2.024, 4-(4-(3-(4-chloro-3-(trifluoromethyl)phenyl)ureido)phenoxy)-N-((1-(6-((2-(2,6-dioxopiperidin-3-yl)-1,3-dioxoisoindolin-4-yl)amino)-6-oxohexyl)-1H-1,2,3-triazol-4-yl)methyl)picolinamide]	++ (25% > RAF/E3 Dimerization ≥ 5%)
Cc1ncc(NC(=O)c2cccc(C(F)(F)F)c2)cc1-c1cnc(OCCOCc2cn(CCCCCC(=O)Nc3cccc4c3C(=O)N(C3CCC(=O)NC3=O)C4=O)nn2)c(N2CCOCC2)c1 (centres unmarked) [Compound 2.022, N-(6′-(2-((1-(6-((2-(2,6-dioxopiperidin-3-yl)-1,3-dioxoisoindolin-4-yl)amino)-6-oxohexyl)-1H-1,2,3-triazol-4-yl)methoxy)ethoxy)-2-methyl-5′-morpholino-[3,3′-bipyridin]-5-yl)-3-(trifluoromethyl)benzamide]	++ (25% > RAF/E3 Dimerization ≥ 5%)
Cc1ncsc1-c1ccc([C@H](C)NC(=O)[C@@H]2C[C@@H](O)CN2C(=O)[C@H](NC(=O)CCOCCOCCOCCOCCOCCOCCNC(=O)c2cc(Oc3ccc(NC(=O)Nc4ccc(Cl)c(C(F)(F)F)c4)cc3)ccn2)C(C)(C)C)cc1 [Compound 1.016, 4-(4-(3-(4-chloro-3-(trifluoromethyl)phenyl)ureido)phenoxy)-N—((R)-23-((2S,4R)-4-hydroxy-2-(((S)-1-(4-(4-methylthiazol-5-yl)phenyl)ethyl)carbamoyl)pyrrolidine-1-carbonyl)-24,24-dimethyl-21-oxo-3,6,9,12,15,18-hexaoxa-22-azapentacosyl)picolinamide]	+ (5% > RAF/E3 Dimerization)
O=C1CCC(N2Cc3c(CCCOCCOCCNC(=O)c4cc(Oc5ccc(NC(=O)Nc6ccc(Cl)c(C(F)(F)F)c6)cc5)ccn4)cccc3C2=O)C(=O)N1 (centres unmarked) [Compound 2.033, 4-(4-(3-(4-chloro-3-(trifluoromethyl)phenyl)ureido)phenoxy)-N-(2-(2-(3-(2-(2,6-dioxopiperidin-3-yl)-1-oxoisoindolin-4-yl)propoxy)ethoxy)ethyl)picolinamide]	++ (25% > RAF/E3 Dimerization ≥ 5%)
Cc1ncc(NC(=O)c2cccc(C(F)(F)F)c2)cc1-c1cnc(OCCOCCOCCOCCN[C@@H](C(=O)N2C[C@H](O)C[C@H]2C(=O)N[C@@H](C)c2ccc(-c3scnc3C)cc2)C(C)(C)C)c(N2CCOCC2)c1 [Compound 2.006, (R)-1-((2S,4R)-4-hydroxy-2-(((S)-1-(4-(4-methylthiazol-5-yl)phenyl)ethyl)carbamoyl)-pyrrolidin-1-yl)-3,3-dimethyl-N-(2-(2-(2-(2-((2′-methyl-5-morpholino-5′-(3-(trifluoro-methyl)benzamido)-[3,3′-bipyridin]-6-yl)oxy)ethoxy)ethoxy)ethoxy)ethyl)-1-oxobutan-2-aminium formate]	+ (5% > RAF/E3 Dimerization)
Cc1ncc(NC(=O)c2cccc(C(F)(F)F)c2)cc1-c1cnc(OCCOCCOCCOCC(=O)NCCCCCCc2cccc3c2CN(C2CCC(=O)NC2=O)C3=O)c(N2CCOCC2)c1 (centres unmarked) [Compound 2.018, N-(6′-((18-(2-(2,6-dioxopiperidin-3-yl)-1-oxoisoindolin-4-yl)-11-oxo-3,6,9-trioxa-12-azaoctadecyl)oxy)-2-methyl-5′-morpholino-[3,3′-bipyridin]-5-yl)-3-(trifluoromethyl)benzamide]	++++ (75% > RAF/E3 Dimerization ≥ 50%)
Cc1ncsc1-c1ccc([C@H](C)NC(=O)[C@@H]2C[C@@H](O)CN2C(=O)[C@H](NC(=O)COCCOCCNC(=O)CCNc2nccc(-c3cn(CC(F)F)nc3-c3cnc4[nH]ccc4c3)n2)C(C)(C)C)cc1 [Compound 2.046, (2S,4R)-1-((R)-2-(tert-butyl)-15-((4-(1-(2,2-difluoroethyl)-3-(1H-pyrrolo[2,3-b]pyridin-5-yl)-1H-pyrazol-4-yl)pyrimidin-2-yl)amino)-4,13-dioxo-6,9-dioxa-3,12-diazapentadecan-1-oyl)-4-hydroxy-N—((S)-1-(4-(4-methylthiazol-5-yl)phenyl)ethyl)pyrrolidine-2-carboxamide]	+++ (50% > RAF/E3 Dimerization ≥ 25)
O=C1CCC(N2C(=O)c3cccc(NC(=O)CCCCCn4cc(CCNC(=O)c5cc(Oc6ccc(NC(=O)Nc7ccc(Cl)c(C(F)(F)F)c7)cc6)ccn5)nn4)c3C2=O)C(=O)N1 (centres unmarked) [Compound 2.025, 4-(4-(3-(4-chloro-3-(trifluoromethyl)phenyl)ureido)phenoxy)-N-(2-(1-(6-((2-(2,6-dioxopiperidin-3-yl)-1,3-dioxoisoindolin-4-yl)amino)-6-oxohexyl)-1H-1,2,3-triazol-4-yl)ethyl)picolinamide]	++ (25% > RAF/E3 Dimerization ≥ 5%)
Cc1ccc(NC(=O)c2cccc(C(F)(F)F)c2)cc1-c1cnc(OCCCCc2cn(CCCCCC(=O)Nc3cccc4c3C(=O)N(C3CCC(=O)NC3=O)C4=O)nn2)c(N2CCOCC2)c1 (centres unmarked) [Compound 2.013, N-(3-(6-(4-(1-(6-((2-(2,6-dioxopiperidin-3-yl)-1,3-dioxoisoindolin-4-yl)amino)-6-oxohexyl)-1H-1,2,3-triazol-4-yl)butoxy)-5-morpholinopyridin-3-yl)-4-methylphenyl)-3-(trifluoromethyl)benzamide]	++ (25% > RAF/E3 Dimerization ≥ 5%)
CCC(Cc1cnnn1CCCCCC(=O)Nc1cccc2c1C(=O)N(C1CCC(=O)NC1=O)C2=O)Oc1ncc(-c2cc(NC(=O)c3cccc(C(F)(F)F)c3)cnc2C)cc1N1CCOCC1 (racemic) [Compound 1.012, (±)-N-(6′-((1-(1-(6-((2-(2,6-dioxopiperidin-3-yl)-1,3-dioxoisoindolin-4-yl)amino)-6-oxohexyl)-1H-1,2,3-triazol-5-yl)butan-2-yl)oxy)-2-methyl-5′-morpholino-[3,3′-bipyridin]-5-yl)-3-(trifluoromethyl)benzamide]	+ (5% > RAF/E3 Dimerization)
O=C1CCC(N2C(=O)c3cccc(CCCOCCNC(=O)c4cc(Oc5ccc(NC(=O)Nc6ccc(Cl)c(C(F)(F)F)c6)cc5)ccn4)c3C2=O)C(=O)N1 (centres unmarked) [Compound 2.029, 4-(4-(3-(4-chloro-3-(trifluoromethyl)phenyl)ureido)phenoxy)-N-(2-(3-(2-(2,6-dioxopiperidin-3-yl)-1,3-dioxoisoindolin-4-yl)propoxy)ethyl)picolinamide]	+ (5% > RAF/E3 Dimerization)
Cc1ncc(NC(=O)c2cccc(C(F)(F)F)c2)cc1-c1cnc(OCCOCCOCC(=O)NCCOCCCc2cccc3c2C(=O)N(C2CCC(=O)NC2=O)C3=O)c(N2CCOCC2)c1 (centres unmarked) [Compound 2.023, N-(6′-((15-(2-(2,6-dioxopiperidin-3-yl)-1,3-dioxoisoindolin-4-yl)-8-oxo-3,6,12-trioxa-9-azapentadecyl)oxy)-2-methyl-5′-morpholino-[3,3′-bipyridin]-5-yl)-3-(trifluoromethyl)ben-zamide]	+ (5% > RAF/E3 Dimerization)
